{"source": "ChEMBL document CHEMBL3259557", "about": "“Structure-activity relationships and colorimetric properties of specific probes for the putative cancer biomarker human arylamine N-acetyltransferase 1” (Bioorg Med Chem, 2014)"}
{"system": "not listed separately", "experiment": "physchem", "conditions": "buffered solution containing 5% DMSO"}
{"smiles": "Cc1cc(C)cc(NC2=C(NS(=O)(=O)c3c(F)cccc3F)C(=O)c3ccccc3C2=O)c1", "pKa at 100 µM": 8.4}
{"smiles": "O=Cc1cccc(C2=C(NS(=O)(=O)c3ccccc3)C(=O)c3ccccc3C2=O)c1", "pKa at 100 µM": 5}
{"smiles": "Nc1cccc2c1C(=O)C(NS(=O)(=O)c1ccccc1)=C(Nc1ccccc1)C2=O", "pKa at 100 µM": 8.2}
{"smiles": "O=Cc1cccc(C2=C(NC(=O)Cc3ccccc3)C(=O)c3ccccc3C2=O)c1", "pKa at 100 µM": 11.4}
{"smiles": "Cc1cc(C)cc(NC2=C(NS(=O)(=O)c3ccccc3)C(=O)c3ccc([N+](=O)[O-])cc3C2=O)c1", "pKa at 100 µM": 7.5}
{"smiles": "Cc1cc(C)cc(NC2=C(NS(C)(=O)=O)C(=O)c3ccccc3C2=O)c1", "pKa at 100 µM": 9.5}
{"smiles": "Cc1cc(C)cc(NC2=C(NS(=O)(=O)c3ccccc3)C(=O)c3cccc([N+](=O)[O-])c3C2=O)c1", "pKa at 100 µM": 8.2}
{"smiles": "O=C1C(NCc2ccccc2)=C(NS(=O)(=O)c2ccccc2)C(=O)c2ccccc21", "pKa at 100 µM": 10.4}
{"smiles": "O=Cc1ccc(C2=C(NS(=O)(=O)c3ccccc3)C(=O)c3ccccc3C2=O)cc1", "pKa at 100 µM": 4.6}
{"smiles": "Cc1cc(C)cc(NC2=C(NS(=O)(=O)c3ccccc3)C(=O)c3c(cccc3[N+](=O)[O-])C2=O)c1", "pKa at 100 µM": 8.6}
{"smiles": "O=C1C(NS(=O)(=O)c2ccccc2)=C(c2ccccc2Cl)C(=O)c2ccccc21", "pKa at 100 µM": 4.9}
{"smiles": "Cc1cc(C)cc(NC2=C(NS(=O)(=O)C3CCCCC3)C(=O)c3ccccc3C2=O)c1", "pKa at 100 µM": 10.6}
{"smiles": "Cc1cc(C)cc(NC2=C(NS(=O)(=O)c3ccc(F)cc3)C(=O)c3ccccc3C2=O)c1", "pKa at 100 µM": 9.9}
{"smiles": "O=C1C(NS(=O)(=O)c2ccccc2)=C(c2ccco2)C(=O)c2ccccc21", "pKa at 100 µM": 5.1}
{"smiles": "O=C1C(Nc2ccc(Br)cc2)=C(NS(=O)(=O)c2ccccc2)C(=O)c2ccccc21", "pKa at 100 µM": 10.4}
{"smiles": "Cc1cc(C)cc(NC2=C(NS(=O)(=O)Cc3ccccc3)C(=O)c3ccccc3C2=O)c1", "pKa at 100 µM": 10}
{"smiles": "O=C(Cc1ccccc1)NC1=C(c2ccoc2)C(=O)c2ccccc2C1=O", "pKa at 100 µM": 12.5}
{"smiles": "Cc1cc(C)cc(NC2=C(NS(=O)(=O)c3ccccc3)C(=O)c3c(N)cccc3C2=O)c1", "pKa at 100 µM": 8.4}
{"smiles": "O=C(NC1=C(c2ccoc2)C(=O)c2ccccc2C1=O)c1ccccc1", "pKa at 100 µM": 12.1}
{"smiles": "O=Cc1cccc(C2=C(NC(=O)c3ccccc3)C(=O)c3ccccc3C2=O)c1", "pKa at 100 µM": 10.9}
{"smiles": "Cc1cc(C)cc(OC2=C(NS(=O)(=O)c3ccccc3)C(=O)c3ccccc3C2=O)c1", "pKa at 100 µM": 5}
{"smiles": "COCCNC1=C(NS(=O)(=O)c2ccccc2)C(=O)c2ccccc2C1=O", "pKa at 100 µM": 9.8}
{"smiles": "Cc1cc(C)cc(NC2=C(NS(=O)(=O)c3ccco3)C(=O)c3ccccc3C2=O)c1", "pKa at 100 µM": 8.3}
{"smiles": "O=C1C(NS(=O)(=O)c2ccccc2)=C(c2cccc(Cl)c2)C(=O)c2ccccc21", "pKa at 100 µM": 4.5}
{"smiles": "Cc1cc(C)cc(NC2=C(NS(=O)(=O)c3ccccc3[N+](=O)[O-])C(=O)c3ccccc3C2=O)c1", "pKa at 100 µM": 7.9}
{"smiles": "O=C1C(Nc2ccccc2)=C(NS(=O)(=O)c2ccccc2)C(=O)c2c1cccc2[N+](=O)[O-]", "pKa at 100 µM": 8.4}
{"smiles": "O=C1C(NS(=O)(=O)c2ccccc2)=C(Oc2ccccc2)C(=O)c2ccccc21", "pKa at 100 µM": 5}
{"smiles": "Cc1ccc(S(=O)(=O)NC2=C(Nc3cc(C)cc(C)c3)C(=O)c3ccccc3C2=O)cc1", "pKa at 100 µM": 9.7}
{"smiles": "O=C1C(NS(=O)(=O)c2ccccc2)=C(c2ccc(Cl)cc2)C(=O)c2ccccc21", "pKa at 100 µM": 5}
{"smiles": "O=C1C(NC2CCCC2)=C(NS(=O)(=O)c2ccccc2)C(=O)c2ccccc21", "pKa at 100 µM": 10.1}
{"smiles": "Cc1cc(C)cc(NC2=C(NS(=O)(=O)c3ccccc3)C(=O)c3cc([N+](=O)[O-])ccc3C2=O)c1", "pKa at 100 µM": 8}
{"smiles": "O=C1C(NS(=O)(=O)c2ccccc2)=C(Oc2ccc(Br)cc2)C(=O)c2ccccc21", "pKa at 100 µM": 5}
{"smiles": "Cc1cc(C)cc(NC2=C(NS(=O)(=O)c3ccccc3)C(=O)c3ccccc3C2=O)c1", "pKa at 100 µM": 9.2}
{"smiles": "Cc1cc(C)cc(NC2=C(NS(=O)(=O)c3ccccc3C)C(=O)c3ccccc3C2=O)c1", "pKa at 100 µM": 9.3}
{"smiles": "O=C1C(Nc2ccccc2)=C(NS(=O)(=O)c2ccccc2)C(=O)c2ccccc21", "pKa at 100 µM": 9.5}
{"smiles": "O=C1C(NS(=O)(=O)c2ccccc2)=C(c2ccoc2)C(=O)c2ccccc21", "pKa at 100 µM": 5}
{"smiles": "Cc1cc(C)cc(NC2=C(NS(=O)(=O)c3cccc([N+](=O)[O-])c3)C(=O)c3ccccc3C2=O)c1", "pKa at 100 µM": 8.6}
{"molecular_target": "T1, NAT2 (arylamine N-acetyltransferase 2) (Homo sapiens, UniProt P11245)", "T1 sequence (P11245 whole entry)": "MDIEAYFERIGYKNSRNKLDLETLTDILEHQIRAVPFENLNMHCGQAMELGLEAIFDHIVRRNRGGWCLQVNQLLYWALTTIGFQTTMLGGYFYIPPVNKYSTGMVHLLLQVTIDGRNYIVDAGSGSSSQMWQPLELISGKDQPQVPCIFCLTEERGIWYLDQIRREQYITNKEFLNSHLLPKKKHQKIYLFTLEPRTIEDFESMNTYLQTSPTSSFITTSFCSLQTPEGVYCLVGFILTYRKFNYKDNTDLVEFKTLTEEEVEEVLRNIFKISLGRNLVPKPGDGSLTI", "experiment": "in vitro", "conditions": "probe arylamine and AcCoA", "units": {"inhibition at 30 µM": "%"}}
{"smiles": "O=C(NC1=C(c2ccoc2)C(=O)c2ccccc2C1=O)c1ccccc1", "inhibition at 30 µM": "> 50"}
{"smiles": "O=Cc1cccc(C2=C(NC(=O)c3ccccc3)C(=O)c3ccccc3C2=O)c1", "inhibition at 30 µM": "> 50"}
{"molecular_target": "T2, NAT1 (arylamine N-acetyltransferase 1) (Homo sapiens, UniProt P18440)", "T2 sequence (P18440 whole entry)": "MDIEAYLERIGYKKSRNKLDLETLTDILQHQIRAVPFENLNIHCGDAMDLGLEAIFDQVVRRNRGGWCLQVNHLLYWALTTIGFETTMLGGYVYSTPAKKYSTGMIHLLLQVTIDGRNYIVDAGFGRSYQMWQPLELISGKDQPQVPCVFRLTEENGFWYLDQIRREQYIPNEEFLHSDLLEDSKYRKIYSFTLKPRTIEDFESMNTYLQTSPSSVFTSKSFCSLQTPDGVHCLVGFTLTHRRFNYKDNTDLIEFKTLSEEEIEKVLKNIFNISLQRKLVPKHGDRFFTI", "experiment": "in vitro", "conditions": "ZR-75-1 cells, probe arylamine and AcCoA", "units": {"inhibition at 1 µM": "%"}}
{"smiles": "Cc1cc(C)cc(NC2=C(NS(=O)(=O)c3ccc(F)cc3)C(=O)c3ccccc3C2=O)c1", "inhibition at 1 µM": "> 50"}
{"smiles": "Cc1cc(C)cc(NC2=C(NS(=O)(=O)c3ccccc3)C(=O)c3cc(N)ccc3C2=O)c1", "inhibition at 1 µM": "> 50"}
{"smiles": "Cc1cc(C)cc(NC2=C(NS(=O)(=O)c3ccccc3)C(=O)c3c(N)cccc3C2=O)c1", "inhibition at 1 µM": "> 50"}
{"smiles": "Cc1cc(C)cc(NC2=C(NS(=O)(=O)c3ccccc3)C(=O)c3ccccc3C2=O)c1", "inhibition at 1 µM": "> 50"}
